According to patent US9409952B2, “Peptide-compound cyclization method” (Chugai Seiyaku Kabushiki Kaisha, priority 2011, dated 2016):
Like-named read-outs stand apart in the source and are kept apart here. Starred links: 1 amine or outer side, 2 acyl side, 3 side chain; linkers in the order of their positions; H or OH if unused. Positions of bridges follow the written chain, without caps; N, C: chain ends. Non-standard residues stand in square brackets, D forms with d. Residues, ends and D or L forms follow the SMILES beside them. *: point of attachment. Ala(1H-tetrazol-5-yl) = N[C@@H](Cc1nnn[nH]1)C(=O)O; Met(O2) = CS(=O)(=O)CC[C@H](N)C(=O)O; NMeF = CN[C@@H](Cc1ccccc1)C(=O)O; NMeβAla = CN(CCC(=O)[*:2])[*:1]; NMeL = CN[C@@H](CC(C)C)C(=O)O; NMeV = CN[C@H](C(=O)O)C(C)C; NMeA = CN[C@@H](C)C(=O)O; Piperidide = C1CCN(*)CC1; dNMeA = CN[C@H](C)C(=O)O; β3hA = C[C@H](N)CC(=O)O; Sar = CNCC(=O)O; tBu = CC(C)(C)*

What was measured:
[1] = PAMPA (parallel artificial membrane permeability assay); format: in vitro ADME; conditions: PAMPA
Outline: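 Artificial membrane was 10% (w/v) egg lecithin plus 0.5% (w/v) cholesterol in dodecane on a PVDF filter. A 10 mM DMSO stock was added at 0.5% (v/v) to donor buffer (50 mM MOPSO, pH 6.5, 5.0% glycocholic acid). After 18 h at 37 °C, LC/MS or LC/UV gave donor and acceptor levels for Pe.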

[2] = Metabolic stability in human hepatic microsome; format: in vitro ADME; conditions: microsomes
[3] = membrane permeation rate (Pe), 50 mM MOPSO buffer pH 6.5 with 5.0% glycocholic acid, 37° C., 18 hours, read-out: iPAMPA Pe
[4] = pH 7.4, human hepatic microsome, NADPH(+), read-out: CL NADPH(+)

Compound	Papp at 18 hours, 50 µM ([1]; pH 6.5)	microsomal CLint at 1 uM ([2]; human, pH 7.4, CL NADPH(+))	Papp at 18 hours, 50 µM [1, 3]	microsomal CLint at 1 uM [2, 4]
CC(C)C[C@@H]1NC(=O)[C@H](CC(C)C)N(C)C(=O)CNC(=O)[C@H](Cc2ccccc2)NC(=O)[C@H](C(C)C)N(C)C(=O)[C@H](Cc2ccccc2)NC(=O)[C@H](C)N(C)C(=O)CCN(C)C(=O)C[C@@H](C(=O)N(C)[C@@H](Cc2ccccc2)C(=O)N[C@@H](C)C(=O)N2CCCCC2)NC(=O)[C@H](C)N(C)C(=O)[C@H](CC(C)C)N(C)C1=O [DP-282] ([NMeβAla][NMeA]F[NMeV]FG[NMeL]L[NMeL][NMeA]D[NMeF]A-Piperidide; lactam N-11)	28 ×10⁻⁶ cm/s	138 µL/min/mg		
CC(C)C[C@H]1C(=O)N(C)[C@@H](C)C(=O)N[C@@H](C)C(=O)N[C@@H](C)CC(=O)N(C)CCC(=O)N(C)[C@@H](Cc2ccccc2)C(=O)N(C)[C@@H](C)C(=O)N[C@@H]([C@@H](C)O)C(=O)N(C)[C@@H](C)C(=O)N[C@@H](Cc2ccccc2)C(=O)N(C)[C@@H](C(C)C)C(=O)N1C [DP-763] (cyclo(A[β3hA][NMeβAla][NMeF][NMeA]T[NMeA]F[NMeV][NMeL][NMeA]))	2.5 ×10⁻⁶ cm/s	15 µL/min/mg		
CC(C)C[C@H]1C(=O)N(C)[C@@H](Cc2ccccc2)C(=O)N(C)[C@@H](CC(C)C)C(=O)N[C@@H]([C@@H](C)O)C(=O)N[C@H](C(=O)N2CCCCC2)CC(=O)N[C@H](C(C)C)C(=O)N(C)[C@@H](C)C(=O)N(C)[C@@H](CC(C)C)C(=O)N[C@@H](CCS(C)(=O)=O)C(=O)N(C)[C@@H](Cc2ccccc2)C(=O)N[C@@H](Cc2ccccc2)C(=O)N1C [DP-621] ([dV][NMeA][NMeL][Met(O2)][NMeF]F[NMeL][NMeF][NMeL]TD-Piperidide; lactam N-11)			21 ×10⁻⁶ cm/s	11 µL/min/mg
CC(C)C[C@H]1C(=O)N(C)[C@@H](Cc2ccccc2)C(=O)N[C@H](C(=O)N2CCCCC2)CC(=O)N(C)[C@@H](C)C(=O)N[C@@H](C)C(=O)N[C@@H]([C@@H](C)O)C(=O)N(C)[C@@H](CC(C)C)C(=O)N[C@@H](Cc2ccccc2)C(=O)N1C [DP-699] ([NMeA]AT[NMeL]F[NMeL][NMeF]D-Piperidide; lactam N-8)			29 ×10⁻⁶ cm/s	81 µL/min/mg
CC[C@H](C)[C@@H]1NC(=O)[C@H](CC(C)C)N(C)C(=O)CN(C)C(=O)[C@H]([C@@H](C)O)NC(=O)[C@H](C)N(C)C(=O)C[C@@H](C(=O)N(C)[C@@H](C)C(=O)N2CCC[C@H]2C(=O)N[C@@H](C)C(=O)N2CCCCC2)NC(=O)[C@H](CC(C)C)N(C)C(=O)[C@H](Cc2ccccc2)N(C)C(=O)[C@H](CC(C)C)N(C)C1=O [DP-661] ([NMeA]T[Sar][NMeL]I[NMeL][NMeF][NMeL]D[NMeA]PA-Piperidide; lactam N-9)			25 ×10⁻⁶ cm/s	17 µL/min/mg
CC(C)C[C@H]1C(=O)N[C@@H](C)C(=O)N(C)[C@@H](Cc2ccccc2)C(=O)N(C)[C@@H](C(C)C)C(=O)N[C@@H](C)C(=O)N(C)[C@@H](C)C(=O)N[C@H](C(=O)N(C)[C@@H](Cc2ccccc2)C(=O)N[C@@H](C)C(=O)N2CCCCC2)CC(=O)N(C)[C@@H](C)C(=O)N(C)[C@@H](Cc2ccccc2)C(=O)N[C@@H]([C@@H](C)O)C(=O)N(C)[C@@H](C)C(=O)N1C [DP-367] ([NMeA][NMeF]T[NMeA][NMeL]A[NMeF][NMeV]A[NMeA]D[NMeF]A-Piperidide; lactam N-11)			12 ×10⁻⁶ cm/s	17 µL/min/mg
CC(C)C[C@@H]1NC(=O)[C@H](CC(C)C)N(C)C(=O)C[C@@H](C(=O)N2CCCCC2)NC(=O)[C@H](CC(C)C)N(C)C(=O)[C@H](CC(C)C)N(C)C(=O)[C@H](Cc2nn[nH]n2)NC(=O)[C@H](CC(C)C)N(C)C(=O)[C@H](Cc2ccccc2)N(C)C(=O)[C@H](CC(C)C)NC(=O)[C@H](Cc2ccccc2)N(C)C(=O)[C@H](CC(C)C)N(C)C1=O [DP-908] ([NMeL]L[NMeL][NMeF]L[NMeF][NMeL][Ala(1H-tetrazol-5-yl)][NMeL][NMeL]D-Piperidide; lactam N-11)			1.6 ×10⁻⁶ cm/s	3 µL/min/mg
CC(C)C[C@H]1C(=O)N[C@@H](COC(C)(C)C)C(=O)N[C@@H](C)CC(=O)N[C@H](C)C(=O)N(C)[C@@H](C)C(=O)N(C)[C@@H](Cc2ccccc2)C(=O)N(C)[C@@H](C)C(=O)N[C@@H]([C@@H](C)O)C(=O)N(C)[C@@H](C)C(=O)N1C [DP-786] (cyclo([NMeA][NMeF][NMeA]T[NMeA][NMeL]S(tBu)[β3hA][dA]))			5.9 ×10⁻⁶ cm/s	14 µL/min/mg
CC[C@H](C)[C@@H]1NC(=O)[C@H](Cc2ccccc2)NC(=O)[C@@H](C)N(C)C(=O)C[C@@H](C(=O)N2CCCCC2)NC(=O)[C@H](CC(C)C)NC(=O)[C@H](Cc2ccccc2)N(C)C(=O)[C@H](Cc2ccccc2)NC(=O)[C@H](CC(C)C)NC(=O)[C@H]([C@@H](C)O)NC(=O)[C@H](CC(C)C)NC1=O [DP-119] ([dNMeA]FILTLF[NMeF]LD-Piperidide; lactam N-10)			16 ×10⁻⁶ cm/s	67 µL/min/mg
